Results reported in patent US20220323389A1, “TREATING NON-ALCOHOLIC FATTY LIVER DISEASE AND INFLAMMATORY STEATOHEPATITIS WITH SLC25A1 INHIBITORS” (GEORGETOWN UNIVERSITY, priority 2019, published 2022).

What was measured:
[1] = test system: C57Bl/6J mice fed with the HFD; experiment: Diet-Induced-Obesity (DIO) model: body weight, fat and organ weights of HFD-fed mice; format: in vivo
From the text: (§1) Cells, reagents, antibodies, primers. CTPI-2 was purchased from Enamine Ltd. (Monmouth Jct, N.J.). The anti-SLC25A1 antibody used in immunoblots was either from Santa Cruz Biotech (Dallas, Tex.), (#sc-86392), employed at 1:1000 dilution, or from Proteintech (15235-1-AP, Rosemont, Ill.), employed at 1:1000 dilution. Mice and diets. For the majority of the experiments (except for experiments harboring genetic alterations of the Slc25a1 gene), DIO C57BL/6J mice were purchased from Jackson Laboratory (Bar Harbor, Me.) between 4-6 weeks of age. Mice were acclimated in the Georgetown University animal facility for at least one week. At the indicated times, mice were randomized to a standard laboratory chow diet (Labdiet #5053, St. Louis, Mo.) or the high fat diet (Researchdiets D12492, New Brunswick, N.J.), with 60% calories derived from fat (lard), and 20% from sucrose. During the course of the experiments, mice were housed at one mouse per cage and food consumption was measured regularly. Animals were maintained in a normal light-cycle and provided with water ad libitum. CTPI-2 treatment. CTPI-2 was administered at 50 mg/kg via intra-peritoneal injection on alternate days. CTPI-2 was diluted either in DMSO (at 0.2% final concentration) using DMSO as vehicle control, or in 0.47% Sodium Bicarbonate (NaCO3) at a final concentration of 14 mM. NaCO3 (0.47%) served as vehicle control. Immunoblot of murine tissues. Frozen tissue samples were homogenized in radioimmunoprecipitation (RIPA) buffer with protease inhibitor cocktails. Protein quantification was done by using a Coomassie (Bradford) Protein Assay Kit (Pierce, Waltham Mass.). Equal amount of protein lysate was loaded and separated by Novex™ 4-20% Tris-Glycine Mini Gel (Invitrogen, Carlsbad, Calif.), then transferred to a PVDF membrane. Appropriate horseradish peroxidase-conjugated secondary antibody (Invitrogen) was applied after incubation with primary antibody. SuperSignal™ West Pico PLUS Chemiluminescent Substrate (Thermo Fisher Scientific, Waltham, Mass.) was used for protein detection. SLC25a1 strains. The original Slc25a1 tm1a strain was purchased from the Mutant Mouse Resource and Research Center (MMRRC, Chapel Hill, N.C.) (C57BL/6N-Slc25a1^tm1a(EUCOMM)Wtsi, RRID: MMRRC_042258-UCD). The Tg(Alb-cre)21M (Alb-Cre) mice were purchased from Jackson Laboratory (#003574). Slc25a1^+/−, Slc25a1^fl/fl and Alb/Cre mice were genotyped by conventional PCR with genomic DNA extracted from the mouse tail biopsies. Agarose gel electrophoresis was used for analysis of PCR product analysis. The PCR conditions used were as follows: 95° C. for 4 minutes, followed by 40 cycles (95° C. for 30 seconds, 65° C. for 30 seconds, and 72° C. for 50 seconds), 72° C. for 2 min then kept in 4° C. before used. Histological Analysis. Assessment of steatosis was performed on paraffin embedded H&E stained sections derived from 3-6 animals and on multiple images for each animal. The steatosis grade was scored according to the degree of liver involvement with 0, <5%; 1, 5% to 33%; 2, 33% to 50%; and 3, >50%. Alternatively, the percentage of steatosis per area was calculated with ImageJ program. Lypidomic analysis. Targeted quantitation of triglycerides was performed using multiple reaction monitoring mass spectrometry. The samples were resolved on an CORTECS T3 2.7 μm, 2.1×30 mm column online with a triple quadrupole mass spectrometer (Xevo-TQ-S, Waters Corporation, Milford, Mass.) operating in the multiple reaction monitoring (MRM) mode. Signal intensities from all MRM Q1/Q3 ion pairs for triglycerides were ranked to ensure selection of the most intense precursor and fragment ion pair for MRM-based quantitation. […] The LC and MRM method used here for the study was developed by Waters Corporation. The metabolite ratios were calculated by normalizing the peak area of endogenous metabolites within tissue samples normalized to the internal standard. Processed data was normalized with respect to tissue weight taken for analysis. […]

[2] = test system: mice fed with a normal diet; experiment: Body weight of mice fed control (normal) diet and treated with CTPI-2; format: in vivo; conditions: CTPI-2 for 5 months
From the text: Cells, reagents, antibodies, primers. CTPI-2 was purchased from Enamine Ltd. (Monmouth Jct, N.J.). The anti-SLC25A1 antibody used in immunoblots was either from Santa Cruz Biotech (Dallas, Tex.), (#sc-86392), employed at 1:1000 dilution, or from Proteintech (15235-1-AP, Rosemont, Ill.), employed at 1:1000 dilution. Mice and diets. For the majority of the experiments (except for experiments harboring genetic alterations of the Slc25a1 gene), DIO C57BL/6J mice were purchased from Jackson Laboratory (Bar Harbor, Me.) between 4-6 weeks of age. Mice were acclimated in the Georgetown University animal facility for at least one week. […] During the course of the experiments, mice were housed at one mouse per cage and food consumption was measured regularly. […] Protein quantification was done by using a Coomassie (Bradford) Protein Assay Kit (Pierce, Waltham Mass.). […] The steatosis grade was scored according to the degree of liver involvement with 0, <5%; 1, 5% to 33%; 2, 33% to 50%; and 3, >50%. Alternatively, the percentage of steatosis per area was calculated with ImageJ program. […] Targeted quantitation of triglycerides was performed using multiple reaction monitoring mass spectrometry. […] Signal intensities from all MRM Q1/Q3 ion pairs for triglycerides were ranked to ensure selection of the most intense precursor and fragment ion pair for MRM-based quantitation. […]

liver of HFD-fed mice = experiment: Liver steatosis / steatohepatitis histology and serum chemistry in HFD-fed mice (time course); format: in vivo, mouse
From the text: as §1

HFD-fed mice [3] = experiment: Glucose homeostasis in HFD-fed mice (fasting glucose, GTT, ITT); format: in vivo, mouse
From the text: (§2) Cells, reagents, antibodies, primers. CTPI-2 was purchased from Enamine Ltd. (Monmouth Jct, N.J.). The anti-SLC25A1 antibody used in immunoblots was either from Santa Cruz Biotech (Dallas, Tex.), (#sc-86392), employed at 1:1000 dilution, or from Proteintech (15235-1-AP, Rosemont, Ill.), employed at 1:1000 dilution. Mice and diets. For the majority of the experiments (except for experiments harboring genetic alterations of the Slc25a1 gene), DIO C57BL/6J mice were purchased from Jackson Laboratory (Bar Harbor, Me.) between 4-6 weeks of age. Mice were acclimated in the Georgetown University animal facility for at least one week. At the indicated times, mice were randomized to a standard laboratory chow diet (Labdiet #5053, St. Louis, Mo.) or the high fat diet (Researchdiets D12492, New Brunswick, N.J.), with 60% calories derived from fat (lard), and 20% from sucrose. During the course of the experiments, mice were housed at one mouse per cage and food consumption was measured regularly. Animals were maintained in a normal light-cycle and provided with water ad libitum. CTPI-2 treatment. CTPI-2 was administered at 50 mg/kg via intra-peritoneal injection on alternate days. […] Protein quantification was done by using a Coomassie (Bradford) Protein Assay Kit (Pierce, Waltham Mass.). […] The steatosis grade was scored according to the degree of liver involvement with 0, <5%; 1, 5% to 33%; 2, 33% to 50%; and 3, >50%. Alternatively, the percentage of steatosis per area was calculated with ImageJ program. […] Targeted quantitation of triglycerides was performed using multiple reaction monitoring mass spectrometry. […] Signal intensities from all MRM Q1/Q3 ion pairs for triglycerides were ranked to ensure selection of the most intense precursor and fragment ion pair for MRM-based quantitation. […] The metabolite ratios were calculated by normalizing the peak area of endogenous metabolites within tissue samples normalized to the internal standard. […]

SLC25A1 = experiment: Immunoblot of SLC25A1 protein in tissues of HFD-fed mice; format: in vivo, mouse
From the text: as §2

HFD-fed mice [4] = experiment: Inflammation and fibrosis in HFD-fed mice (serum interleukins, macrophage IHC, RT-PCR, Picro-Sirius Red); format: in vivo, mouse; conditions: HFD-fed mice
From the text: as §1

[5] = HFD-fed mice, CTPI-2 50 mg/kg i.p. alternate days
[6] = time course of CTPI-2 treatment

## O=C(O)c1ccccc1NS(=O)(=O)c1ccc(Cl)c([N+](=O)[O-])c1 [CTPI-2]
[1]; C57BL/6J mice, CTPI-2 50 mg/kg i.p. on alternate days
  feeding behavior (daily food consumption): did not modify feeding behavior
[1]; HFD 6 months, CTPI-2 50 mg/kg i.p. alternate days, started after 12 weeks of HFD
  body weight gain: largely prevented such weight gain
[1]; [5]
  WAT (visceral abdominal fat), also by MRI: reducing the WAT
  WAT weight (mass): reducing their mass
  liver weight (mass): reducing their mass
  pale, enlarged liver phenotype (visual examination): completely reverted this phenotype
[2]
  body weights: did not modify body weights
Liver of HFD-fed mice; HFD conditions
  prevention of liver steatosis relative to Cre/Alb+:Slc25a1−/− mice: more effectively prevented liver steatosis
Liver of HFD-fed mice; [5]
  alanine aminotransferase (ALT) levels: normalized
  total serum cholesterol levels: normalized
Liver of HFD-fed mice; HFD-fed mice, CTPI-2 50 mg/kg i.p. alternate days, LC-MS
  serum triglyceride levels: normalized
Liver of HFD-fed mice; HFD-fed mice, CTPI-2 started after 3 months HFD
  evolution to steatohepatitis: prevented the evolution to steatohepatitis
Liver of HFD-fed mice; HFD-fed mice, CTPI-2 started after 3 months HFD, 4, 8, 12 weeks treatment
  liver steatosis: nearly completely reversed liver steatosis
Liver of HFD-fed mice; after 3 months of CTPI-2 and 6 months on the HFD, most treated mice
  liver histology compared with normal-diet animals: nearly indistinguishable from those of animals fed a normal diet
Liver of HFD-fed mice; steatosis present after 3 months HFD when CTPI-2 started
  early stages of steatosis: reverted these early stages of steatosis
HFD-fed mice [3]; CTPI-2 50 mg/kg i.p. alternate days
  basal fasting glucose levels: reduced the basal fasting glucose levels
HFD-fed mice [3]; [6]
  glucose tolerance test (GTT): complete time-dependent normalization
  insulin tolerance test (ITT): complete time-dependent normalization
SLC25A1
  SLC25A1 expression levels in the adipose tissue: reduced SLC25A1 expression levels
  SLC25A1 expression levels in the liver: reduced SLC25A1 expression levels
  SLC25A1 expression levels in the pancreas: not in the pancreas
HFD-fed mice [4]
  collagen in the liver (Picro-Sirius Red): reduction of collagen in the liver
HFD-fed mice [4]; CTPI-2 vs vehicle
  circulating serum IL-4: increasing
  circulating serum IL-6: lowered
  circulating serum IL-10: increasing
HFD-fed mice [4]; serum
  monocyte chemo-attractant protein-1 (MCP1): reduced
  monokine induced by interferon-γ (MIG): reduced
HFD-fed mice [4]; IHC
  adipose tissue macrophage infiltration organized in crown-like structures: completely resolved this phenotype
